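Compound exposure: 48 hours, 5 concentrations, 96-well plates. GI50 = concentration required for 50% inhibition of growth.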 Calls of active or inactive are those of the source. No stated cut-off is given here; in the data, active = GI50 up to about 1.1 µM and inactive = higher.
Key:
Experiment in all cases: inhibition of tumour cell growth, NCI panel, 48 h
ACHN = tested on: ACHN
CAKI-1 = tested on: CAKI-1
COLO 205 = tested on: COLO 205
EKVX = tested on: EKVX
Hs-578T = tested on: Hs-578T
IGROV-1 = tested on: IGROV-1
K562 = tested on: K562
MDA-N = tested on: MDA-N
Malme-3M = tested on: Malme-3M
NCI-H226 = tested on: NCI-H226
NCI-H460 = tested on: NCI-H460
NCI/ADR-RES = tested on: NCI/ADR-RES
SK-MEL-2 = tested on: SK-MEL-2
SNB-19 = tested on: SNB-19
T47D = tested on: T47D
UACC-257 = tested on: UACC-257
UACC-62 = tested on: UACC-62
UO-31 = tested on: UO-31
HL-60 = tested on: HL-60

Measured: GI50

COC(=O)C(=O)C(C(=O)C(=O)Nc1cc(C)ccc1C)c1nc2ccccc2nc1O (stereo not drawn)
inactive: ACHN > 100 µM | CAKI-1 > 100 µM | COLO 205 > 100 µM | EKVX 26.6 µM | Hs-578T 74.3 µM | IGROV-1 67 µM | K562 > 100 µM | MDA-N > 100 µM | Malme-3M > 100 µM | NCI-H226 > 100 µM | NCI-H460 > 100 µM | NCI/ADR-RES > 100 µM | SK-MEL-2 > 100 µM | SNB-19 > 100 µM | T47D > 100 µM | UACC-257 > 100 µM | UACC-62 87.7 µM | UO-31 > 100 µM

Cc1nc(C)c(N2CCN(C(=O)NC(CCC(=O)O)C(=O)O)CC2)c(O)n1 (stereo not drawn)
inactive: ACHN > 100 µM | CAKI-1 > 100 µM | COLO 205 > 100 µM | EKVX > 100 µM | HL-60 > 100 µM | Hs-578T > 100 µM | IGROV-1 > 100 µM | K562 > 100 µM | MDA-N > 100 µM | Malme-3M > 100 µM | NCI-H226 > 100 µM | NCI-H460 > 100 µM | NCI/ADR-RES > 100 µM | SNB-19 > 100 µM | T47D > 100 µM | UACC-257 > 100 µM | UACC-62 > 100 µM | UO-31 > 100 µM

O=C1C(=c2cc3c(c4ccccc24)=NC24CCCCC2C(c2ccccc2)C=C(c2ccccc2)N34)C(=O)c2ccccc21 (stereo not drawn)
inactive: ACHN 54.3 µM | CAKI-1 53 µM | COLO 205 33 µM | EKVX 12.7 µM | HL-60 27.7 µM | Hs-578T 34 µM | IGROV-1 3.08 µM | K562 23 µM | MDA-N 36.9 µM | Malme-3M 45.1 µM | NCI-H226 44.3 µM | SK-MEL-2 42.5 µM | SNB-19 45.2 µM | T47D 3.48 µM | UACC-257 > 100 µM | UO-31 22.9 µM

CC1(C)C(CCO)CC1n1ccc(=O)[nH]c1=O (stereo not drawn)
inactive: ACHN > 100 µM | CAKI-1 > 100 µM | EKVX > 100 µM | Hs-578T > 100 µM | K562 10.6 µM | MDA-N > 100 µM | NCI-H226 > 100 µM | NCI/ADR-RES > 100 µM | SK-MEL-2 > 100 µM | SNB-19 > 100 µM | T47D > 100 µM | UACC-257 > 100 µM | UACC-62 > 100 µM | UO-31 > 100 µM

CCn1c(SCc2nnc(Nc3ccccc3)s2)nc2ccccc2c1=O
inactive: ACHN 2.85 µM | CAKI-1 3.04 µM | COLO 205 16.1 µM | EKVX 3.56 µM | Hs-578T 2.39 µM | IGROV-1 3.62 µM | K562 19.8 µM | MDA-N 8.77 µM | Malme-3M 1.46 µM | NCI-H226 2.19 µM | NCI-H460 1.45 µM | NCI/ADR-RES 2.59 µM | SK-MEL-2 5.14 µM | SNB-19 3.5 µM | T47D 5.57 µM | UACC-257 11.8 µM | UACC-62 3.3 µM | UO-31 3.08 µM

COc1ccc2c(c1)CCC/C2=N\NS(=O)(=O)c1c(C)cc(C)cc1C
inactive: ACHN 27.7 µM | CAKI-1 38.5 µM | COLO 205 23.9 µM | EKVX 23.2 µM | Hs-578T 30.6 µM | IGROV-1 19 µM | K562 18.1 µM | MDA-N 28.6 µM | Malme-3M 24.4 µM | NCI-H226 22.2 µM | NCI-H460 31 µM | NCI/ADR-RES 21.7 µM | SK-MEL-2 34.3 µM | SNB-19 41.6 µM | T47D 16.5 µM | UACC-257 39.2 µM | UACC-62 18.7 µM | UO-31 28.9 µM

CC(C)OP(=O)(OC(C)C)C(C(C)C)N(C)/C(F)=N/C(F)(F)F (stereo not drawn)
inactive: ACHN > 100 µM | CAKI-1 > 100 µM | COLO 205 > 100 µM | EKVX > 100 µM | HL-60 31 µM | Hs-578T > 100 µM | IGROV-1 > 100 µM | K562 60.5 µM | MDA-N > 100 µM | Malme-3M > 100 µM | NCI-H226 > 100 µM | NCI-H460 > 100 µM | NCI/ADR-RES > 100 µM | SNB-19 > 100 µM | T47D > 100 µM | UACC-257 > 100 µM | UACC-62 > 100 µM | UO-31 > 100 µM

CC(N)(CC(O)(C(F)(F)Cl)C(F)(F)Cl)C(=O)O (stereo not drawn)
inactive: ACHN > 10 µM | CAKI-1 > 10 µM | COLO 205 > 10 µM | EKVX > 10 µM | Hs-578T > 10 µM | IGROV-1 > 10 µM | K562 > 10 µM | MDA-N > 10 µM | Malme-3M > 10 µM | NCI-H226 > 10 µM | NCI-H460 > 10 µM | NCI/ADR-RES > 10 µM | SNB-19 > 10 µM | T47D > 10 µM | UACC-257 > 10 µM | UACC-62 > 10 µM | UO-31 > 10 µM

N#Cc1c2ccc([N+](=O)[O-])cc2c(=O)n2c1sc1ccccc12
inactive: ACHN 32.4 µM | CAKI-1 24.4 µM | COLO 205 6.87 µM | HL-60 19.3 µM | Hs-578T 48 µM | K562 11.1 µM | MDA-N 80.2 µM | NCI-H226 17 µM | NCI-H460 27.5 µM | NCI/ADR-RES 18.4 µM | SK-MEL-2 17.3 µM | SNB-19 10.5 µM | T47D 14.8 µM | UACC-257 78.5 µM | UACC-62 28 µM | UO-31 22.6 µM

O=C1Nc2ccccc2C1Cc1ccc([N+](=O)[O-])cc1 (stereo not drawn)
inactive: ACHN > 100 µM | CAKI-1 > 100 µM | COLO 205 50 µM | EKVX > 100 µM | HL-60 5.57 µM | Hs-578T 63.4 µM | IGROV-1 21.6 µM | K562 > 100 µM | MDA-N 71.4 µM | NCI-H226 > 100 µM | NCI-H460 > 100 µM | NCI/ADR-RES > 100 µM | SK-MEL-2 > 100 µM | SNB-19 > 100 µM | T47D > 100 µM | UACC-257 > 100 µM | UACC-62 > 100 µM | UO-31 > 100 µM

Cc1cc2c(cc1Cl)SC(c1ccccc1)C(=O)NS2(=O)=O (stereo not drawn)
inactive: ACHN 36.7 µM | CAKI-1 38.9 µM | EKVX 70.1 µM | HL-60 29.3 µM | Hs-578T 27.5 µM | IGROV-1 40.8 µM | K562 39.2 µM | MDA-N 34.1 µM | NCI-H226 36.3 µM | NCI-H460 30.3 µM | NCI/ADR-RES 29.5 µM | SK-MEL-2 17.3 µM | T47D 30.1 µM | UACC-257 28.2 µM | UO-31 28.1 µM

Brc1ccc(-c2cc(-c3ccc4c(c3)OCO4)c(-c3cccs3)n2Cc2ccccc2)cc1
inactive: ACHN > 100 µM | CAKI-1 > 100 µM | COLO 205 > 100 µM | EKVX > 100 µM | HL-60 > 100 µM | Hs-578T > 100 µM | IGROV-1 > 100 µM | K562 > 100 µM | MDA-N > 100 µM | NCI-H460 > 100 µM | NCI/ADR-RES > 100 µM | SK-MEL-2 > 100 µM | SNB-19 > 100 µM | T47D > 100 µM | UACC-257 > 100 µM | UACC-62 > 100 µM | UO-31 > 100 µM

Cc1ccc(SC(=O)N2C(=S)N=C(NC3CCCCC3)C23CCCCC3)cc1
inactive: ACHN 80 µM | CAKI-1 > 100 µM | COLO 205 43.4 µM | EKVX > 100 µM | HL-60 38.6 µM | Hs-578T 62.2 µM | IGROV-1 36.1 µM | K562 > 100 µM | MDA-N > 100 µM | Malme-3M > 100 µM | NCI-H460 81.3 µM | NCI/ADR-RES > 100 µM | SK-MEL-2 > 100 µM | SNB-19 > 100 µM | T47D 52.1 µM | UACC-257 82.8 µM | UACC-62 > 100 µM | UO-31 46.6 µM

Cc1cn2c(/C=C3/C(=O)Nc4cccc(Cl)c43)c(Cl)nc2s1
inactive: ACHN 20.6 µM | CAKI-1 > 100 µM | EKVX 55.8 µM | HL-60 53.7 µM | Hs-578T 4.13 µM | IGROV-1 > 100 µM | K562 > 100 µM | MDA-N > 100 µM | Malme-3M > 100 µM | NCI/ADR-RES > 100 µM | SNB-19 40.4 µM | T47D > 100 µM | UACC-257 > 100 µM | UACC-62 19.6 µM | UO-31 > 100 µM

CCOC(=O)[C@@H]1ON2O[C@H](OC3CCCCC3c3ccccc3)C[C@H]3OC(=O)[C@@H]1C32 (stereo partly drawn)
inactive: ACHN > 100 µM | CAKI-1 > 100 µM | COLO 205 > 100 µM | EKVX > 100 µM | Hs-578T > 100 µM | IGROV-1 > 100 µM | K562 > 100 µM | MDA-N > 100 µM | NCI-H226 > 100 µM | NCI-H460 39.8 µM | NCI/ADR-RES > 100 µM | T47D > 100 µM | UACC-257 > 100 µM | UACC-62 > 100 µM | UO-31 > 100 µM

Cc1ccc(N2C(N)=C(C#N)C(C#N)(C#N)C2c2ccccc2)cc1 (stereo not drawn)
inactive: ACHN 14.2 µM | CAKI-1 8.97 µM | COLO 205 10.2 µM | EKVX 18 µM | HL-60 2.75 µM | Hs-578T 21 µM | IGROV-1 6.67 µM | MDA-N 3.08 µM | Malme-3M 11.5 µM | NCI-H226 19.5 µM | NCI/ADR-RES 17 µM | SK-MEL-2 13.6 µM | SNB-19 17.5 µM | T47D 5.74 µM | UACC-257 15.6 µM | UACC-62 11.4 µM | UO-31 15.8 µM

Reference: ChEMBL document CHEMBL1201862, “PubChem BioAssay data set” (2004)
